Data on two molecules can be found in patent US10981913B2, “11C -labeled 06 -benzylguanine, pet probe capable of visualizing 06-methyl guanine methyl-transferase activity, and production method of the same” (NATIONAL CENTER FOR GERIATRICS AND GERONTOLOGY, priority 2016, dated 2021).

“And” between values parts separate entries of the source, which are not always exact repeats. Identical values can stand only once. “Also recorded” adds a separate entry of the source. Like-named read-outs stand apart in the source and are kept apart here.

In one data set the target is T1, MGMT (Homo sapiens, UniProt P16455).
T1 sequence (P16455 1-207): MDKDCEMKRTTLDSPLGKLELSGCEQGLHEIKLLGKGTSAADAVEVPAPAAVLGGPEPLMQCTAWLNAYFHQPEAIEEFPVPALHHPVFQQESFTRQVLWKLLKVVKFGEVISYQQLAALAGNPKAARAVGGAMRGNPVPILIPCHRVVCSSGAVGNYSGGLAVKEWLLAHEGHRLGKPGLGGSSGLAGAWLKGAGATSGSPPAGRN
Description: enzyme inhibitory activity against MGMT using fluorescent labeled oligonucleotide substrates. Format: biochemical. Conditions: FIG. 1. The source says:
The introduction position of the [^11C] methyl group of the benzene ring present in the above-mentioned O^6-benzylguanine (1) was investigated. […] Erickson, K. D. Miller, B. H. Mock, B. E. Glick-Wilsob, W. L. Winkel, K. L. Stone, K. A. Carlson, Synth. Commun. 2003, 33, 941-952.

The nature of data set [1]: Pharmacokinetics test using rats (brain permeability, blood and brain tissue by HPLC). The data set is classed as in vivo, Sprague-Dawley rats. Conditions: rat; for concentration at 30 min / Kp at 0.5 h / Kp at 30 min / concentration at 32 min / concentration at 44 min / Kp: Sprague-Dawley, iv; for concentration at 30 min / Kp at 0.5 h / Kp at 30 min / Brain/Plasma ratio / Conc. HPLC (concentration of compound in brain homogenate) / Conc. brain / concentration at 32 min / concentration at 44 min / Kp: 10 mg/kg; for Kp at 30 min / concentration of the compound in the brain based on the total dose: 30 minutes after administration; for Kp at 30 min: read-out: ratio of brain concentration to the concentration in the plasma; for Brain/Plasma ratio / Conc. HPLC (concentration of compound in brain homogenate) / Conc. brain: listed as mMeBG (2); for metabolism after intravenous administration (plasma concentration of compound and metabolites over time): i.v., FIGS. 7 to 9; for Kp: plasma 30 min. As for the experimental part:
Regarding O^6-(3-methylbenzyl) guanine (2) and O^6-(4-methylbenzyl) guanine (3) not labeled with ^11C synthesized by the above method (that is, cold), brain permeability was evaluated by the following method.
After intravenous administration (10 mg/kg) of O^6-(3-methylbenzyl) guanine (2) or O^6-(4-methylbenzyl) guanine (3) to Sprague-Dawley rats, blood and brain tissues were collected after a predetermined time, and analyzed by HPLC.

A further data set can be described thus: stability in the plasma. The data set is classed as in vitro ADME.
Setting [2] is: i.v. 10 mg/kg, 30 min, under anaesthesia, fasting, individual animals.
[3] abbreviates: i.v. 10 mg/kg, 30 min, under anaesthesia, nonfasting, individual animals.
Setting [4] is: i.v. 10 mg/kg, 30 min, under nonanaesthesia, fasting, individual animals.
[5] abbreviates: brain homogenate, i.v. 10 mg/kg, under anaesthesia, fasting, read-out: Conc. HPLC (concentration of compound in brain homogenate).
Setting [6] is: brain, i.v. 10 mg/kg, under anaesthesia, fasting, read-out: Conc. brain.

For `Cc1cccc(COc2nc(N)nc3nc[nH]c23)c1` [Compound 2, O^6-(3-methylbenzyl) guanine], at MGMT, the “MGMT inhibitory effect compared with O^6-benzylguanine (1)” value is on record as “MGMT inhibitory effect similar to O^6-benzylguanine (1); also recorded: slightly higher inhibitory activity than O^6-BG (1)”. In addition, the concentration at 30 min was determined as 513 ng/mL in data set [1] (brain homogenate, i.v. 10 mg/kg, 30 min, under anaesthesia, fasting, average, read-out: Conc. HPLC (brain homogenate), Ave.); 568 ng/mL in data set [1] (brain homogenate, i.v. 10 mg/kg, 30 min, under anaesthesia, fasting, individual animals, read-out: Conc. HPLC (concentration of compound in brain homogenate)); 663 ng/mL in data set [1] (brain homogenate, i.v. 10 mg/kg, 30 min, under anaesthesia, nonfasting, average, read-out: Conc. HPLC (brain homogenate), Ave.); 784 ng/mL in data set [1] (brain homogenate, i.v. 10 mg/kg, 30 min, under anaesthesia, nonfasting, individual animals, read-out: Conc. HPLC (concentration of compound in brain homogenate)); 523 ng/mL in data set [1] (brain homogenate, i.v. 10 mg/kg, 30 min, under nonanaesthesia, fasting, average, read-out: Conc. HPLC (brain homogenate), Ave.); 536 ng/mL in data set [1] (brain homogenate, i.v. 10 mg/kg, 30 min, under nonanaesthesia, fasting, individual animals, read-out: Conc. HPLC (concentration of compound in brain homogenate)). Further, the concentration at 30 min in data set [1] (brain, i.v. 10 mg/kg, 30 min, under anaesthesia, fasting, average, read-out: Conc. brain, Ave.) came out at 1350 ng/mL; in data set [1] (brain, i.v. 10 mg/kg, 30 min, under anaesthesia, fasting, individual animals, read-out: Conc. brain), 1500 ng/mL; in data set [1] (brain, i.v. 10 mg/kg, 30 min, under anaesthesia, nonfasting, average, read-out: Conc. brain, Ave.) it was 1660 ng/mL; in data set [1] (brain, i.v. 10 mg/kg, 30 min, under anaesthesia, nonfasting, individual animals, read-out: Conc. brain), 1890 ng/mL; in data set [1] (brain, i.v. 10 mg/kg, 30 min, under nonanaesthesia, fasting, average, read-out: Conc. brain, Ave.), 1380 ng/mL; in data set [1] (brain, i.v. 10 mg/kg, 30 min, under nonanaesthesia, fasting, individual animals, read-out: Conc. brain), 1400 ng/mL. In addition, the concentration at 30 min in data set [1] (plasma, average (n = 3), 30 min after i.v. 10 mg/kg of 2, rat under nonanaesthesia and fasting, other rats than brain sample, read-out: Conc. Plasma) turned out to be 5190 ng/mL; in data set [1] (plasma, average (n = 5), 30 min after i.v. 10 mg/kg of 2, rat under anaesthesia and fasting, other rats than brain sample, read-out: Conc. Plasma), 4450 ng/mL. For the same molecule, the Kp at 0.5 h in data set [1] (brain, i.v. 10 mg/kg, 30 min, under anaesthesia, fasting, average, read-out: Brain/Plasma ratio, Ave.) is 0.303; in data set [1] (brain, i.v. 10 mg/kg, 30 min, under anaesthesia, fasting, individual animals, read-out: Brain/Plasma ratio), 0.336; in data set [1] (brain, i.v. 10 mg/kg, 30 min, under anaesthesia, nonfasting (plasma value from anaesthesia, fasting rats), average, read-out: Brain/Plasma ratio, Ave.), 0.373; in data set [1] (brain, i.v. 10 mg/kg, 30 min, under anaesthesia, nonfasting (plasma value from anaesthesia, fasting rats), individual animals, read-out: Brain/Plasma ratio) it was 0.425; in data set [1] (brain, i.v. 10 mg/kg, 30 min, under nonanaesthesia, fasting, average, read-out: Brain/Plasma ratio, Ave.), 0.265; in data set [1] (brain, i.v. 10 mg/kg, 30 min, under nonanaesthesia, fasting, individual animals, read-out: Brain/Plasma ratio), 0.27. The Kp at 30 min in data set [1] (brain, i.v. 10 mg/kg) was 0.3. Moreover, the “accumulation in the brain” value in data set [1] (i.v. 10 mg/kg) is listed as “accumulated in the brain”. In addition, the Brain/Plasma ratio in data set [1] (setting [2]) is 0.275 and 0.298; in data set [1] (i.v. 10 mg/kg, 30 min, under anaesthesia, nonfasting (plasma value from anaesthesia, fasting rats), individual animals) it was 0.398 and 0.296; in data set [1] (setting [4]) it was 0.315 and 0.255 and 0.249 and 0.229 and 0.277. Also, the “Conc. HPLC (concentration of compound in brain homogenate)” value in data set [1] (setting [2]) was 464 ng/mL and 507 ng/mL; in data set [1] (setting [3]) it was 684 ng/mL and 522 ng/mL; in data set [1] (setting [4]), 635 ng/mL and 474 ng/mL and 481 ng/mL and 454 ng/mL and 555 ng/mL. In addition, the Conc. brain is 1223 ng/mL and 1325 ng/mL in data set [1] (setting [2]); 1772 ng/mL and 1318 ng/mL in data set [1] (setting [3]); 1634 ng/mL and 1323 ng/mL and 1291 ng/mL and 1188 ng/mL and 1436 ng/mL in data set [1] (setting [4]). In addition, the “concentration of the compound in the brain based on the total dose” value in data set [1] (i.v. 10 mg/kg) was determined as 0.1%. Besides, the “metabolism after intravenous administration (plasma concentration of compound and metabolites over time)” value in data set [1] was “more stable than the compound (3) and was present for a long time”. Moreover, the “stability in the plasma” value in “stability in the plasma” is on record as “stably exist in the plasma”.
As to `Cc1ccc(COc2nc(N)nc3nc[nH]c23)cc1` [Compound 3, O^6-(4-methylbenzyl) guanine], on MGMT, the “MGMT inhibitory effect compared with O^6-benzylguanine (1)” value was “MGMT inhibitory effect similar to O^6-benzylguanine (1); also recorded: slightly higher inhibitory activity than O^6-BG (1)”. In addition, in data set [1] (setting [5]), the concentration at 32 min came to 231 ng/mL and the concentration at 44 min turned out to be 118 ng/mL. For the same molecule, the Kp at 30 min in data set [1] (brain, i.v. 10 mg/kg) worked out at 0.3. For the same molecule, in data set [1] (setting [6]), the concentration at 32 min came to 959 ng/mL and the concentration at 44 min was found to be 470 ng/mL. For the same molecule, in data set [1] (brain, i.v. 10 mg/kg, brain 32 min, under anaesthesia, fasting, read-out: Brain/Plasma ratio), the Kp was 0.386. The Kp in data set [1] (brain, i.v. 10 mg/kg, brain 44 min, under anaesthesia, fasting, read-out: Brain/Plasma ratio) was 0.189. Also, the concentration at 30 min in data set [1] (plasma, average (n = 3), 30 min after i.v. 10 mg/kg of 3, rat under anaesthesia and fasting, other rats than brain sample, read-out: Conc. Plasma) stood at 2480 ng/mL. Besides, in data set [1] (i.v. 10 mg/kg), the “accumulation in the brain” value is listed as “accumulated in the brain” and the “concentration of the compound in the brain based on the total dose” value was 0.1%. In data set [1], the “metabolism after intravenous administration (plasma concentration of compound and metabolites over time)” value is on record as “quickly metabolized to unknown, more polar compounds within 240 minutes”. In the data set “stability in the plasma”, the “stability in the plasma” value is “stably exist in the plasma”.
